Assay results reported in US10800791B2, “Triazole ACC inhibitors and uses thereof” (Gilead Apollo, LLC, priority 2015, dated 2020).
Converted amounts (≈) assume the structure as drawn. Where two headings read alike, the source gives them in different places.

Tests used:
[1] = tested on: C. krusei; test: Antifungal Activity Assay (broth microtiter MIC), C. krusei; type: cell-based, Candida krusei; conditions: Pichia kudriavzevii, ATCC6258, 48 h
Summary of the method: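 CLSI M27-A3 broth microdilution in RPMI 1640+MOPS, final inoculum 2.5×10^3 CFU/mL from overnight Sabouraud cultures grown at 35 °C. MIC read visually at 48 h against growth control.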

[2] = tested on: Collectotrichum graminicola (Cg); test: Growth inhibition assay of fungal pathogens, Cg; type: cell-based; conditions: 48 h
Summary of the method: (§1)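 Spores diluted in 17% V8 liquid media and incubated with compound at final 50, 10, 2 ppm or 2, 0.4, 0.08 ppm (2% DMSO). OD600 plus visual ratings at 24 and 48 hours, blank-subtracted; percent growth inhibition from 48 h readings relative to 2% DMSO control.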

[3] = tested on: Phytophthora capsici (Pc); test: Growth inhibition assay of fungal pathogens, Pc; type: cell-based; conditions: 48 h
Summary of the method: as §1

[4] = Table 3a, ATCC 6258, 3 replicates, MIC recorded at 48 h, read-out: MIC, C. krusei ATCC 6258
[5] = Table 3b (additional results), ATCC 6258, 3 replicates, MIC recorded at 48 h, read-out: MIC, C. krusei ATCC 6258
[6] = Collectotrichum graminicola, growth inhibition at 48 hours vs 2% DMSO control, read-out: Concentration at 90% Inhibition Cg
[7] = Collectotrichum graminicola, growth inhibition vs 2% DMSO control at 48 hours, read-out: Concentration at 90% Inhibition Cg
[8] = growth inhibition at 48 hours vs 2% DMSO control, read-out: Concentration at 90% Inhibition Pc
[9] = growth inhibition vs 2% DMSO control at 48 hours, read-out: Concentration at 90% Inhibition Pc
[10] = read-out: MIC, C. krusei ATCC 6258, Table 3b (additional results), 3 replicates, MIC recorded at 48 h
[11] = read-out: Concentration at 90% Inhibition Cg, Collectotrichum graminicola, growth inhibition at 48 hours vs 2% DMSO control
[12] = read-out: Concentration at 90% Inhibition Cg, Collectotrichum graminicola, growth inhibition vs 2% DMSO control at 48 hours
[13] = read-out: Concentration at 90% Inhibition Pc, Phytophthora capsici, growth inhibition at 48 hours vs 2% DMSO control
[14] = read-out: Concentration at 90% Inhibition Pc, Phytophthora capsici, growth inhibition vs 2% DMSO control at 48 hours
[15] = read-out: MIC, C. krusei ATCC 6258, Table 3a, 3 replicates, MIC recorded at 48 h

SMILES | MIC [1, 4] [µg/mL] | MIC [1, 5] [µg/mL] | IC90 [2, 6] [µg/mL] | IC90 [2, 7] [µg/mL] | IC90 [3, 8] [µg/mL] | IC90 [3, 9] [µg/mL] | MIC [1, 10] [µg/mL] | IC90 [2, 11] [µg/mL] | IC90 [2, 12] [µg/mL] | IC90 [3, 13] [µg/mL] | IC90 [3, 14] [µg/mL] | MIC [1, 15] [µg/mL]
COCCO[C@@H](Cn1c(=O)n(C(C)C(=O)N2CCCC2)c(=O)c2c(C)c(-n3nccn3)sc21)c1cc(F)ccc1OC (stereo partly drawn) [Compound I-64, 1-((R)-2-(5-fluoro-2-methoxyphenyl)-2-(2-methoxy-ethoxy)ethyl)-5-methyl-3-(1-oxo-1-(pyrrolidin-1-yl)propan-2-yl)-6-(2H-1,2,3-triazol-2-yl)thieno[2,3-d]pyrimidine-2,4(1H,3H)-dione] | 2.1 to 4 (≈ 3.5 to 6.66 µM) | 2.01 to 4 (≈ 3.35 to 6.66 µM) | 10 (≈ 16.6 µM) | > 50 | > 50 | > 50 |  |  |  |  |  | 
COCCO[C@@H](Cn1c(=O)n([C@H](C)C(=O)N2CCCC2)c(=O)c2c(C)c(-n3nccn3)sc21)c1cc(F)ccc1OC [Compound I-65, 1-((R)-2-(5-fluoro-2-methoxyphenyl)-2-(2-methoxy-ethoxy)ethyl)-5-methyl-3-((R)-1-oxo-1-(pyrrolidin-1-yl)propan-2-yl)-6-(2H-1,2,3-triazol-2-yl)thieno[2,3-d]pyrimidine-2,4(1H,3H)-dione] | 2.1 to 4 (≈ 3.5 to 6.66 µM) | 2.01 to 4 (≈ 3.35 to 6.66 µM) | 10 (≈ 16.6 µM) | > 50 | > 50 | > 50 |  |  |  |  |  | 
COCCCO[C@@H](Cn1c(=O)n(C(C)(C)C(=O)N2CCCC2)c(=O)c2c(C)c(-n3nccn3)sc21)c1cc(F)ccc1OC [Compound I-68, (R)-1-(2-(5-fluoro-2-methoxyphenyl)-2-(3-methoxy-propoxy)ethyl)-5-methyl-3-(2-methyl-1-oxo-1-(pyrrolidin-1-yl)propan-2-yl)-6-(2H-1,2,3-triazol-2-yl)thieno[2,3-d]pyrimidine-2,4(1H,3H)-dione] |  | 2.01 to 4 (≈ 3.2 to 6.36 µM) | 2 (≈ 3.18 µM) | 2 (≈ 3.18 µM) | > 50 | > 50 |  |  |  |  |  | 
COCCCO[C@@H](Cn1c(=O)n(C(C)(C)C(=O)NC(C)C)c(=O)c2c(C)c(-n3nccn3)sc21)c1cc(F)ccc1OC [Compound I-69, (R)-2-(1-(2-(5-fluoro-2-methoxyphenyl)-2-(3-methoxy-propoxy)ethyl)-5-methyl-2,4-dioxo-6-(2H-1,2,3-triazol-2-yl)-1,4-dihydrothieno[2,3-d]pyrimidin-3(2H)-yl)-N-isopropyl-2-methylpropanamide] |  |  |  |  |  |  | 0.25 to 1 (≈ 0.405 to 1.62 µM) | 0.4 (≈ 0.649 µM) | 0.4 (≈ 0.649 µM) | > 50 | > 50 | 
C=CCNC(=O)C(C)(C)n1c(=O)c2c(C)c(-n3nccn3)sc2n(C[C@H](OC2CCOCC2)c2cc(F)ccc2OC)c1=O [Compound I-70, (R)—N-allyl-2-(1-(2-(5-fluoro-2-methoxyphenyl)-2-((tetrahydro-2H-pyran-4-yl)oxy)ethyl)-5-methyl-2,4-dioxo-6-(2H-1,2,3-triazol-2-yl)-1,4-dihydrothieno[2,3-d]pyrimidin-3(2H)-yl)-2-methylpropanamide] |  |  |  |  |  |  | 0.25 to 1 (≈ 0.399 to 1.6 µM) | 2 (≈ 3.19 µM) | 2 (≈ 3.19 µM) | > 50 | > 50 | 0.25 to 1 (≈ 0.399 to 1.6 µM)
C=CCN(C)C(=O)C(C)(C)n1c(=O)c2c(C)c(-n3nccn3)sc2n(C[C@H](OC2CCOCC2)c2cc(F)ccc2OC)c1=O [Compound I-71, (R)—N-allyl-2-(1-(2-(5-fluoro-2-methoxyphenyl)-2-((tetrahydro-2H-pyran-4-yl)oxy)ethyl)-5-methyl-2,4-dioxo-6-(2H-1,2,3-triazol-2-yl)-1,4-dihydrothieno[2,3-d]pyrimidin-3(2H)-yl)-N,2-dimethylpropanamide] | 0.25 to 1 (≈ 0.39 to 1.56 µM) | 0.25 to 1 (≈ 0.39 to 1.56 µM) | 0.08 (≈ 0.125 µM) | 0.08 (≈ 0.125 µM) | > 50 | > 50 |  |  |  |  |  | 
C=CCO[C@@H](Cn1c(=O)n(C(C)(C)C(=O)NC(C)C)c(=O)c2c(C)c(-n3nccn3)sc21)c1cc(F)ccc1OC [Compound I-72, (R)-2-(1-(2-(allyloxy)-2-(5-fluoro-2-methoxyphenyl)ethyl)-5-methyl-2,4-dioxo-6-(2H-1,2,3-triazol-2-yl)-1,4-dihydrothieno[2,3-d]pyrimidin-3(2H)-yl)-N-isopropyl-2-methylpropanamide] |  |  |  |  |  |  | 0.25 to 1 (≈ 0.428 to 1.71 µM) | 2 (≈ 3.42 µM) | 2 (≈ 3.42 µM) | > 50 | > 50 | 0.25 to 1 (≈ 0.428 to 1.71 µM)
COc1ccc(F)cc1[C@H](Cn1c(=O)n(C(C)(C)C(=O)NC2CC2)c(=O)c2c(C)c(-n3nccn3)sc21)OC(C)C [Compound I-73, (R)—N-cyclopropyl-2-(1-(2-(5-fluoro-2-methoxyphenyl)-2-isopropoxyethyl)-5-methyl-2,4-dioxo-6-(2H-1,2,3-triazol-2-yl)-1,4-dihydrothieno[2,3-d]pyrimidin-3(2H)-yl)-2-methylpropanamide] | 0.25 to 1 (≈ 0.428 to 1.71 µM) | 0.06 to 0.249 (≈ 0.103 to 0.426 µM) | 2 (≈ 3.42 µM) | 2 (≈ 3.42 µM) | > 50 | > 50 |  |  |  |  |  | 
COc1ccc(F)cc1[C@H](Cn1c(=O)n(C(C)(C)C(=O)N2CCCC2)c(=O)c2c(C)c(-n3nccn3)sc21)OCCN(C)C [Compound I-75, (R)-1-(2-(2-(dimethylamino)ethoxy)-2-(5-fluoro-2-methoxyphenyl)ethyl)-5-methyl-3-(2-methyl-1-oxo-1-(pyrrolidin-1-yl)propan-2-yl)-6-(2H-1,2,3-triazol-2-yl)thieno[2,3-d]pyrimidine-2,4(1H,3H)-dione] | 2.1 to 4 (≈ 3.35 to 6.37 µM) | 2.01 to 4 (≈ 3.2 to 6.37 µM) | > 50 | > 50 | > 50 | > 50 |  |  |  |  |  | 
COc1ccc(F)cc1[C@H](Cn1c(=O)n(C(C)(C)C(=O)NC(C)C)c(=O)c2c(C)c(-n3nccn3)sc21)OCCN(C)C [Compound I-76, (R)-2-(1-(2-(2-(dimethylamino)ethoxy)-2-(5-fluoro-2-methoxyphenyl)ethyl)-5-methyl-2,4-dioxo-6-(2H-1,2,3-triazol-2-yl)-1,4-dihydro-thieno[2,3-d]pyrimidin-3(2H)-yl)-N-isopropyl-2-methylpropanamide] |  |  |  |  |  |  | 0.25 to 1 (≈ 0.406 to 1.62 µM) | > 50 | > 50 | > 50 | > 50 | 2.1 to 4 (≈ 3.41 to 6.5 µM)
COc1ccc(F)cc1[C@H](Cn1c(=O)n([C@@H](C)C(=O)NC2CCC2)c(=O)c2c(C)c(-n3nccn3)sc21)OCCO [Compound I-77, (S)—N-cyclobutyl-2-(1-((R)-2-(5-fluoro-2-methoxyphenyl)-2-(2-hydroxyethoxy)ethyl)-5-methyl-2,4-dioxo-6-(2H-1,2,3-triazol-2-yl)-1,4-dihydrothieno[2,3-d]pyrimidin-3(2H)-yl)propanamide] | 2.1 to 4 (≈ 3.58 to 6.82 µM) | 0.25 to 1 (≈ 0.426 to 1.7 µM) | 2 (≈ 3.41 µM) | 10 (≈ 17 µM) | > 50 | > 50 |  |  |  |  |  | 
COc1ccc(F)cc1[C@H](Cn1c(=O)n([C@@H](C)C(=O)N(C)C(C)C)c(=O)c2c(C)c(-n3nccn3)sc21)OCCO [Compound I-78, (S)-2-(1-((R)-2-(5-fluoro-2-methoxyphenyl)-2-(2-hydroxy-ethoxy)ethyl)-5-methyl-2,4-dioxo-6-(2H-1,2,3-triazol-2-yl)-1,4-dihydrothieno[2,3-d]pyrimidin-3(2H)-yl)-N-isopropyl-N-methylpropanamide] | 2.1 to 4 (≈ 3.57 to 6.8 µM) | 1.01 to 2 (≈ 1.72 to 3.4 µM) | 0.4 (≈ 0.68 µM) | 0.4 (≈ 0.68 µM) | > 50 | > 50 |  |  |  |  |  | 
COCCO[C@@H](Cn1c(=O)n(CC(=O)N2CCCC2)c(=O)c2c(C)c(-n3nccn3)sc21)c1cc(F)ccc1OC [Compound I-79, (R)-1-(2-(5-fluoro-2-methoxyphenyl)-2-(2-methoxy-ethoxy)ethyl)-5-methyl-3-(2-oxo-2-(pyrrolidin-1-yl)ethyl)-6-(2H-1,2,3-tria-zol-2-yl)thieno[2,3-d]pyrimidine-2,4(1H,3H)-dione] | 2.1 to 4 (≈ 3.58 to 6.82 µM) | > 4.01 | 2 (≈ 3.41 µM) | 10 (≈ 17 µM) | > 50 | > 50 |  |  |  |  |  | 
COCCO[C@@H](Cn1c(=O)n(CC(=O)NC(C)C)c(=O)c2c(C)c(-n3nccn3)sc21)c1cc(F)ccc1OC [Compound I-80, (R)-2-(1-(2-(5-fluoro-2-methoxyphenyl)-2-(2-methoxy-ethoxy)ethyl)-5-methyl-2,4-dioxo-6-(2H-1,2,3-triazol-2-yl)-1,4-dihydro-thieno[2,3-d]pyrimidin-3(2H)-yl)-N-isopropylacetamide] |  |  |  |  |  |  | > 4.01 | > 50 | > 50 | > 50 | > 50 | 2.1 to 4 (≈ 3.65 to 6.96 µM)
COc1ccc(F)cc1[C@H](Cn1c(=O)n(CC(=O)N2CCCC2)c(=O)c2c(C)c(-n3nccn3)sc21)OCCO [Compound I-81, (R)-1-(2-(5-fluoro-2-methoxyphenyl)-2-(2-hydroxy-ethoxy)ethyl)-5-methyl-3-(2-oxo-2-(pyrrolidin-1-yl)ethyl)-6-(2H-1,2,3-triazol-2-yl)thieno[2,3-d]pyrimidine-2,4(1H,3H)-dione] | 2.1 to 4 (≈ 3.67 to 6.99 µM) | > 4.01 | 2 (≈ 3.49 µM) | 2 (≈ 3.49 µM) | > 50 | > 50 |  |  |  |  |  | 
